Experimental data from ChEMBL document CHEMBL1152363 (Bioorg Med Chem Lett, 2009).
pIC50: −log10 of the molar value.

System: not listed separately
Experiment: Metabolic stability in rat liver microsomes assessed as turnover after 60 mins
Type: ADME, Microsome
Conditions: read-out: Stability
Work on `N[C@@H](CC(=O)N1CCC[C@H]1CNC(=O)c1ccccc1)Cc1ccccc1F` yielded a metabolised at 1 h of 76%.

Biological target: Dipeptidyl peptidase 4 (Homo sapiens, UniProt P27487)
Sequence (P27487 whole entry): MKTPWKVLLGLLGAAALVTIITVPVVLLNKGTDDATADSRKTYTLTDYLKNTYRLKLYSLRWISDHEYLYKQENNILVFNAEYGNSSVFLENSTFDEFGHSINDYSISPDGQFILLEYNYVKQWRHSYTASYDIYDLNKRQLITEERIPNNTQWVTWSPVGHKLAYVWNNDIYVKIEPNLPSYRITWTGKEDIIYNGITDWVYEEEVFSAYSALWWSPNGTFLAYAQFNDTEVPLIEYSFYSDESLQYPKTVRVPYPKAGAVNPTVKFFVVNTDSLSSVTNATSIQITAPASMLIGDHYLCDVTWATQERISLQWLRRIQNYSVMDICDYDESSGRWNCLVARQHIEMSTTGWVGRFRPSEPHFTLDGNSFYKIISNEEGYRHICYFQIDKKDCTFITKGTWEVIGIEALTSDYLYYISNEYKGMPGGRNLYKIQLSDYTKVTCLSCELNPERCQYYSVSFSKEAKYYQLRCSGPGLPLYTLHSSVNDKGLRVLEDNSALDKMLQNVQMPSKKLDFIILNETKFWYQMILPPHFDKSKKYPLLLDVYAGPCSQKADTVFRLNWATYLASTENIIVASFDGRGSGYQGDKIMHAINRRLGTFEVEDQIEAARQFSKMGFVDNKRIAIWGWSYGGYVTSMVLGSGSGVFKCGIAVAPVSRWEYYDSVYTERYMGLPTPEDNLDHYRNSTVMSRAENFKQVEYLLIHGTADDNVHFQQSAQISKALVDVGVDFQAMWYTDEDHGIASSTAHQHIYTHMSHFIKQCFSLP
Experiment: Inhibition of DPP4 by continuous fluorimetric assay
Conditions: not given
Work on `N[C@@H](CC(=O)N1CCC[C@H]1CNS(=O)(=O)c1ccc(Cl)cc1)Cc1ccccc1F` yielded a pIC50 of 7.70.
`N[C@@H](CC(=O)N1CCC[C@H]1CNC(=O)c1ccccc1F)Cc1ccccc1F` gave a pIC50 of 7.31.
In the case of `N[C@@H](CC(=O)N1CCC[C@H]1CNC(=O)c1cccc(F)c1)Cc1ccccc1F`, the pIC50 was 7.04.
Compound `N[C@@H](CC(=O)N1CCC[C@H]1CNC(=O)c1ccc(F)cc1)Cc1ccccc1F` has a pIC50 of 7.04.
`CS(=O)(=O)c1ccc(C(=O)NC[C@@H]2CCCN2C(=O)C[C@H](N)Cc2ccccc2F)cc1` showed a pIC50 of 7.11.
`N[C@@H](CC(=O)N1CCC[C@H]1CNC(=O)c1ccccn1)Cc1ccccc1F` showed a pIC50 of 7.33.
With `N[C@@H](CC(=O)N1CCC[C@H]1CNS(=O)(=O)c1cc(Cl)ccc1Cl)Cc1ccccc1F` the pIC50 was 7.62.
Work on `N[C@@H](CC(=O)N1CCC[C@H]1CNC(=O)c1ccccc1)Cc1cccc(Cl)c1` yielded a pIC50 of 7.57.
`N[C@@H](CC(=O)N1CCC[C@H]1CNS(=O)(=O)c1cccc(F)c1)Cc1ccccc1F` gave a pIC50 of 7.03.
`N[C@@H](CC(=O)N1CCC[C@H]1CNC(=O)c1ccncc1)Cc1ccccc1F` showed a pIC50 of 7.18.
`CS(=O)(=O)c1ccccc1C(=O)NC[C@@H]1CCCN1C(=O)C[C@H](N)Cc1ccccc1F` showed a pIC50 of 7.57.
`N[C@@H](CC(=O)N1CCC[C@H]1CNC(=O)c1cccnc1)Cc1ccccc1F` gave a pIC50 of 7.06.
In the case of `N[C@@H](CC(=O)N1CCC[C@H]1CNS(=O)(=O)c1ccc(F)cc1)Cc1ccccc1F`, the pIC50 was 7.57.
